Results: US9561231B2 (AbbVie Inc., priority 2012, dated 2017)

How the values were obtained:
[1] = system: breast cancer cell line MX-1; assay: MX-1 cell line proliferation assay (3-day); format: cell-based; conditions: Homo sapiens, MX1; MX-1 cells, 72 h incubation, Cell Titer Glo; read-out: Cellular proliferation: EC50
In short: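 EC50 derived by sigmoidal fitting of Cell Titer Glo signal relative to DMSO controls. Compound, 3 μM down to 0.0001 μM final in 3-fold steps, was added to adhered MX-1 cells (5000/well, RPMI + 10% FBS) for a 3-day incubation at 37° C.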

[2] = biological target: T1, second (BD2: amino acids E352-E168) bromodomain of BRD4 (Homo sapiens, UniProt O60885); assay: TR-FRET bromodomain binding assay, BRD4 BD2; conditions: TR-FRET assay protocol (A-G, compound concentration range); Ki calculated from IC50, probe Kd and probe concentration; read-out: TR-FRET Binding Ki: BRD4 (BDII_E352-M457)
T1 construct: protocol
In short: (§1)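 Values are Ki: IC50s from TR-FRET competition with an Alexa647-labeled BET-inhibitor probe were converted using probe Kd and probe concentration. Purified His-tagged bromodomain; pH 6.0 sodium phosphate buffer.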

[3] = biological target: T2, first (BD1: amino acids K57-E168) bromodomain of BRD4 (Homo sapiens, UniProt O60885); assay: TR-FRET bromodomain binding assay, BRD4 BD1; conditions: TR-FRET assay protocol (A-G, compound concentration range); Ki calculated from IC50, probe Kd and probe concentration; read-out: TR-FRET Binding Ki: BRD4 (BDI_K57-E168)
T2 construct: His-tagged first (BD1: amino acids K57-E168)
In short: as §1

Row | SMILES | EC50 [1] [nM] | Ki [2] [nM] | Ki [3] [nM]
1 | CCOc1cc(=O)n(C)cc1-c1cc(NC(=O)c2ccc(NC(C)=O)cc2)ccc1Oc1ccc(F)cc1F [Example 300, 4-(acetylamino)-N-[4-(2,4-difluorophenoxy)-3-(4-ethoxy-1-methyl-6-oxo-1,6-dihydropyridin-3-yl)phenyl]benzamide] | 291 | 24.6 | 25.6
2 | C=CC#Cc1ccccc1Oc1ccc(S(=O)(=O)CC)cc1-c1cn(C)c(=O)cc1O [Example 313, 5-{2-[2-(but-3-en-1-yn-1-yl)phenoxy]-5-(ethylsulfonyl)phenyl}-4-hydroxy-1-methylpyridin-2(1H)-one] | 1330 | 55.2 | 754
3 | CCS(=O)(=O)Nc1ccc(Oc2ccc(F)cc2F)c(-c2cn(C)c(=O)cc2OCc2ccc(CN3CCOCC3)cc2)c1 [Example 315, N-[4-(2,4-difluorophenoxy)-3-(1-methyl-4-{[4-(morpholin-4-ylmethyl)benzyl]oxy}-6-oxo-1,6-dihydropyridin-3-yl)phenyl]ethanesulfonamide] | 55.6 | 0.39 | 2.51
4 | CCS(=O)(=O)Nc1ccc(Oc2ccc(F)cc2F)c(-c2cn(C)c(=O)cc2OC2COC2)c1 [Example 316, N-{4-(2,4-difluorophenoxy)-3-[1-methyl-4-(oxetan-3-yloxy)-6-oxo-1,6-dihydropyridin-3-yl]phenyl}ethanesulfonamide] | 24.7 | 0.809 | 3.9
5 | CCS(=O)(=O)c1ccc(Oc2ccc(F)cc2F)c(-c2cn(C)c(=O)cc2OC2COC2)c1 [Example 318, 5-[2-(2,4-difluorophenoxy)-5-(ethylsulfonyl)phenyl]-1-methyl-4-(oxetan-3-yloxy)pyridin-2(1H)-one] | 42.7 | 15.3 | 156
6 | CCS(=O)(=O)Nc1ccc(Oc2ccc(F)cc2F)c(-c2cn(C)c(=O)cc2OC2CCN(C(=O)OC(C)(C)C)CC2)c1 [Example 319, tert-butyl 4-[(5-{2-(2,4-difluorophenoxy)-5-[(ethylsulfonyl)amino]phenyl}-1-methyl-2-oxo-1,2-dihydropyridin-4-yl)oxy]piperidine-1-carboxylate] | 322 | 104 | 316
7 | CCS(=O)(=O)Nc1ccc(Oc2ccc(F)cc2F)c(-c2cn(C)c(=O)cc2O[C@H]2CC[C@H](N(C)C)CC2)c1 [Example 321, N-[4-(2,4-difluorophenoxy)-3-(4-{[trans-4-(dimethylamino)cyclohexyl]oxy}-1-methyl-6-oxo-1,6-dihydropyridin-3-yl)phenyl]ethanesulfonamide] | 423 | 9.15 | 50
8 | CCS(=O)(=O)Nc1ccc(Oc2ccc(F)cc2F)c(-c2cn(C)c(=O)cc2OC2CCNCC2)c1 [Example 322, N-{4-(2,4-difluorophenoxy)-3-[1-methyl-6-oxo-4-(piperidin-4-yloxy)-1,6-dihydropyridin-3-yl]phenyl}ethanesulfonamide] | > 3000 | 90.9 | 437
9 | CCS(=O)(=O)Nc1ccc(Oc2ccc(F)cc2F)c(-c2cn(C)c(=O)cc2OCC2CCN(C)C2)c1 (stereo not drawn) [Example 323, N-[4-(2,4-difluorophenoxy)-3-{1-methyl-4-[(1-methylpyrrolidin-3-yl)methoxy]-6-oxo-1,6-dihydropyridin-3-yl]phenyl}ethanesulfonamide] | 1140 | 101 | 150
10 | CCS(=O)(=O)Nc1ccc(Oc2ccc(F)cc2F)c(-c2cn(C)c(=O)cc2OCC2CCN(C(=O)OC(C)(C)C)CC2)c1 [Example 324, tert-butyl 4-{[(5-{2-(2,4-difluorophenoxy)-5-[(ethylsulfonyl)amino]phenyl}-1-methyl-2-oxo-1,2-dihydropyridin-4-yl)oxy]methyl}piperidine-1-carboxylate] | 436 | 18.1 | 45
11 | CCS(=O)(=O)Nc1ccc(Oc2ccc(F)cc2F)c(-c2cn(C)c(=O)cc2OC2CC3(C2)CN(C(=O)OC(C)(C)C)C3)c1 [Example 325, tert-butyl 6-[(5-{2-(2,4-difluorophenoxy)-5-[(ethylsulfonyl)amino]phenyl}-1-methyl-2-oxo-1,2-dihydropyridin-4-yl)oxy]-2-azaspiro[3.3]heptane-2-carboxylate] | 101 | 21.4 | 30.6
12 | CCS(=O)(=O)Nc1ccc(Oc2ccc(F)cc2F)c(-c2cn(C)c(=O)cc2OC2CC3(CNC3)C2)c1 [Example 326, N-{3-[4-(2-azaspiro[3.3]hept-6-yloxy)-1-methyl-6-oxo-1,6-dihydropyridin-3-yl]-4-(2,4-difluorophenoxy)phenyl}ethanesulfonamide] | 2980 | 17.5 | 2.61
13 | CCN(CC)CC#CCOc1cc(=O)n(C)cc1-c1cc(NS(=O)(=O)CC)ccc1Oc1ccc(F)cc1F [Example 328, N-[3-(4-{[4-(diethylamino)but-2-yn-1-yl]oxy}-1-methyl-6-oxo-1,6-dihydropyridin-3-yl)-4-(2,4-difluorophenoxy)phenyl]ethanesulfonamide] | 72.7 | 14.6 | 7.1
14 | C/C=C/c1cc(=O)n(C)cc1-c1cc(NS(=O)(=O)CC)ccc1Oc1ccc(F)cc1F [Example 329, N-[4-(2,4-difluorophenoxy)-3-{1-methyl-6-oxo-4-[(1E)-prop-1-en-1-yl]-1,6-dihydropyridin-3-yl]phenyl}ethanesulfonamide] | 22.7 | 1.71 | 2.98
15 | CCS(=O)(=O)Nc1ccc(Oc2ccc(F)cc2F)c(-c2cn(C)c(=O)cc2-c2ccc(N3CCN(C)CC3)cc2)c1 [Example 330, N-[4-(2,4-difluorophenoxy)-3-{1-methyl-4-[4-(4-methylpiperazin-1-yl)phenyl]-6-oxo-1,6-dihydropyridin-3-yl}phenyl]ethanesulfonamide] | 49.7 | 0.584 | 1.96
16 | CCS(=O)(=O)Nc1ccc(Oc2ccc(OC3COC3)cc2F)c(-c2cn(C)c(=O)cc2OC2COC2)c1 [Example 336, N-{4-[2-fluoro-4-(oxetan-3-yloxy)phenoxy]-3-[1-methyl-4-(oxetan-3-yloxy)-6-oxo-1,6-dihydropyridin-3-yl]phenyl}ethanesulfonamide] | 165 | 1.67 | 21.4
17 | CCOc1cc(=O)n(C)cc1-c1cc(S(C)(=O)=O)ccc1NCC1CC1 [Example 340, 5-{2-[(cyclopropylmethyl)amino]-5-(methylsulfonyl)phenyl}-4-ethoxy-1-methylpyridin-2(1H)-one] | 384 | 251 | 225
18 | CCS(=O)(=O)Nc1ccc(Oc2ccc(F)cc2F)c(-c2cn(C)c(=O)cc2-c2cnn(C)c2)c1 [Example 342, N-{4-(2,4-difluorophenoxy)-3-[1-methyl-4-(1-methyl-1H-pyrazol-4-yl)-6-oxo-1,6-dihydropyridin-3-yl]phenyl}ethanesulfonamide] | 91.2 | 0.609 | 2.21
19 | CCOc1cc(=O)n(C)cc1-c1cc(NS(=O)(=O)c2cccc3ccccc23)ccc1Oc1ccc(F)cc1F [Example 343, N-[4-(2,4-difluorophenoxy)-3-(4-ethoxy-1-methyl-6-oxo-1,6-dihydropyridin-3-yl)phenyl]naphthalene-1-sulfonamide] | 504 | 12.7 | 69.8
